Test results reported in US20230192626A1 (Baylor College of Medicine, priority 2020, published 2023).

What follows are compounds tested against T1, Human sEH (hsEH) (Homo sapiens, UniProt P34913) (assay: fluorescence-based sEH biochemical inhibition assay (PHOME substrate)). Settings: Table 1; hsEH 5 nM, PHOME 50 μM, 30° C.
T1 construct: purchased Cayman Chemicals
T1 sequence (P34913 1-555): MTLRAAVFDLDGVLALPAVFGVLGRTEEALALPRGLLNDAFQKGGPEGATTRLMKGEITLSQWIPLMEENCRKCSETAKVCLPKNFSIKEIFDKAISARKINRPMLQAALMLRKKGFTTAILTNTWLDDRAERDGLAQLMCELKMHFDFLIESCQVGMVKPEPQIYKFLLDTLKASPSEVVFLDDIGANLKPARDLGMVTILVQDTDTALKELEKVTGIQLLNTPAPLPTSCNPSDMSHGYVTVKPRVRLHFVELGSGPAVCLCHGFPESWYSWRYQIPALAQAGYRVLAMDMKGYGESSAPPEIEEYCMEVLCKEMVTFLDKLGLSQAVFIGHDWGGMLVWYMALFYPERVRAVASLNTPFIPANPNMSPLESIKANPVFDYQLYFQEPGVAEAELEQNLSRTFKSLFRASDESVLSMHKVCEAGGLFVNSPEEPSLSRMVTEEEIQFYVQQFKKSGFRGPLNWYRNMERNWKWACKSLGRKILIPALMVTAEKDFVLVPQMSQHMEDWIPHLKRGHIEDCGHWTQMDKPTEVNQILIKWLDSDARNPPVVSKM
Description: The benzimidazole-based compounds synthesized according to Example 1 were measured for activity. Using a fluorescence-based sEH biochemical inhibition assay, the IC50 value was measured for each benzimidazole-based compound. Human sEH (hsEH) and its substrate PHOME were purchased from Cayman Chemicals. IC50 values of hsEH inhibitors were determined by fluorescence. IC50 is defined as the concentration of the inhibitor that blocks 50% of the enzymatic activity. To a 96-well plate containing 10 μL enzyme (5 nM in water), 60 μL of H2O and 10 μL BisTris-HCl buffer (25 mM, pH 7.0) were added inhibitors with different concentrations. The mixture was incubated for 5 min at 30° C. prior to addition of 10 μL of PHOME substrate (50 μM). Fluorescence were measured at 30° C. with an excitation wavelength of 330 nm and an emission wavelength of 465 nm using a BioTek H1 plate reader. The IC50 values were calculated by non-linear regression fitting. The curve was generated from at least three separate runs, each in duplicates. Results are given as means and standard deviations. In Table 1, an IC50 value less than or equal to 1 μM is indicated as an “A.” an IC50 value from greater than 1 μM to less than 10 μM is indicated as a “B′” and an IC50 value of greater than or equal to 10 μM is indicated as a “C.”
Additional benzimidazole-based compounds as described herein were measured for activity according to the procedure outlined in Example 2. Briefly, using a fluorescence-based sEH biochemical inhibition assay, the IC50 value was measured for each benzimidazole-based compound.
`Fc1cc2nc(-c3ccc(-c4ccccc4)cc3)[nH]c2cc1Br` [Compound 45, 2-([1,1′-biphenyl]-4-yl)-6-bromo-5-fluoro-1H-benzo[d]imidazole] gave an IC50 of no more than 1000 nM. Work on `COc1ccc(-c2nc3cc(F)c(F)cc3[nH]2)cc1` [Compound 46, 5,6-difluoro-2-(4-methoxyphenyl)-1H-benzo[d]imidazole] yielded an IC50 of no more than 1000 nM. `CC(=O)Nc1ccc(-c2nc3cc(F)c(F)cc3[nH]2)cc1` [Compound 47, N-(4-(5,6-difluoro-1H-benzo[d]imidazol-2-yl)phenyl)acetamide] gave an IC50 of no less than 10000 nM. In the case of `Fc1ccc2[nH]c(-c3ccc(C(F)(F)F)cc3)nc2c1F` [Compound 48, 4,5-difluoro-2-(4-(trifluoromethyl)phenyl)-1H-benzo[d]imidazole], the IC50 is reported as no more than 1000 nM. `Fc1ccc2[nH]c(-c3ccc(-c4ccccc4)cc3)nc2c1F` [Compound 49, 2-([1,1′-biphenyl]-4-yl)-4,5-difluoro-1H-benzo[d]imidazole] showed an IC50 of no less than 10000 nM. With `Fc1cc2nc(-c3ccnc(C(F)(F)F)c3)[nH]c2cc1F` [Compound 50, 5,6-difluoro-2-(2-(trifluoromethyl)pyridin-4-yl)-1H-benzo[d]imidazole] the IC50 was 1000 to 10000 nM. For `Fc1ccc(Oc2ccc(-c3nc4cc(F)c(F)cc4[nH]3)cc2)cc1` [Compound 52, 5,6-difluoro-2-(4-(4-fluorophenoxy)phenyl)-1H-benzo[d]imidazole], the IC50 was no more than 1000 nM. `Fc1cc2nc(-c3ccc(Oc4ccccc4)cc3)[nH]c2cc1F` [Compound 53, 5,6-difluoro-2-(4-phenoxyphenyl)-1H-benzo[d]imidazole] was tested, and the IC50 was no more than 1000 nM. For `N#Cc1ccc(-c2nc3cc(F)c(F)cc3[nH]2)cc1` [Compound 54, 4-(5,6-difluoro-1H-benzo[d]imidazol-2-yl)benzonitrile], the IC50 was no more than 1000 nM. `O=c1[nH]nc(-c2ccc(-c3nc4cc(F)c(F)cc4[nH]3)cc2)o1` [Compound 55, 5-(4-(5,6-difluoro-1H-benzo[d]imidazol-2-yl)phenyl)-1,3,4-oxadiazol-2(3H)-one] showed an IC50 of no more than 1000 nM. `O=C(O)c1ccc(-c2nc3cc(F)c(F)cc3[nH]2)cc1` [Compound 56] gave an IC50 of no more than 1000 nM. For `COC(=O)c1ccc(-c2nc3cc(F)c(F)cc3[nH]2)cc1` [Compound 57, Methyl 4-(5,6-difluoro-1H-benzo[d]imidazol-2-yl)benzoate], the IC50 was no less than 10000 nM. Work on `Fc1cc2nc(-c3ccc(-c4nnco4)cc3)[nH]c2cc1F` [Compound 58, 2-(4-(5,6-difluoro-1H-benzo[d]imidazol-2-yl)phenyl)-1,3,4-oxadiazole] yielded an IC50 of no less than 10000 nM. For `Fc1cc2nc(-c3ccc(-c4ccncc4)cc3)[nH]c2cc1F` [Compound 59, 5,6-difluoro-2-(4-(pyridin-4-yl)phenyl)-1H-benzo[d]imidazole], the IC50 was 1000 to 10000 nM. Work on `Cc1noc(-c2ccc(-c3nc4cc(F)c(F)cc4[nH]3)cc2)n1` [Compound 60, 5-(4-(5,6-difluoro-1H-benzo[d]imidazol-2-yl)phenyl)-3-methyl-1,2,4-oxadiazole] yielded an IC50 of no less than 10000 nM. For `Fc1cc2nc(-c3ccc(-c4nnn[nH]4)cc3)[nH]c2cc1F` [Compound 61, 2-(4-(1H-tetrazol-5-yl)phenyl)-5,6-difluoro-1H-benzo[d]imidazole], the IC50 was no less than 10000 nM.
